Assay results reported in patent publication US11814416B2, “Polypeptide capable of passing through blood-brain barrier” (SHENZHEN RUIJIAN […] COMPANY, priority 2018, dated 2023).

Tests used:
mice [1] = details: mouse, in vivo
mice [2] = details: mouse, in vivo, iv
mice [3] = details: mouse, in vivo; remark: listed apart in the source

Row | Molecule | tremor symptoms and tremor time (side effects) 30 minutes after administration (mice [1]) | antinociceptive effect 1 hour after injection (mice [2]) | duration of the maximal effect (mice [2]) | onset of antinociceptive effect after nasal administration (mice [3]) | tremor symptoms and tremor time (side effects) 120 minutes after administration, compared with MVIIA (mice [1]) | time of maximal (strongest) antinociceptive effect after administration (mice [2]) | difference from the saline group at 8 hours (mice [3]) | time after which the effect disappears (mice [3])
1 | CSCC[C@@H]1NC(=O)[C@H](CC(C)C)NC(=O)[C@H](CCCNC(=N)N)NC(=O)[C@H](CO)NC(=O)[C@@H]2CSSC[C@@H]3NC(=O)[C@H](CO)NC(=O)CNC(=O)[C@H]([C@@H](C)O)NC(=O)[C@H](CSSC[C@H](N)C(=O)N[C@@H](CCCCN)C(=O)NCC(=O)N[C@@H](CCCCN)C(=O)NCC(=O)N[C@@H](C)C(=O)N[C@@H](CCCCN)C(=O)N2)NC(=O)[C@H](CSSC[C@@H](C(N)=O)NC(=O)[C@H](CCCCN)NC(=O)CNC(=O)[C@H](CO)NC(=O)[C@H](CCCNC(=N)N)NC3=O)NC(=O)[C@H](CC(=O)O)NC(=O)[C@H](Cc2ccc(O)cc2)NC1=O [MVIIA, reference compound] | more obvious tremor symptoms and longer tremor time | – | – | – | – | – | – | –
2 | CKGKGAKCSRLMYDCCTGSCRSGKCGGGYGRKKRRQRRR [MVIIA-d] | lower than that of MVIIA | showed antinociceptive effects | about 4 hours | immediate effect | no significant differences | – | – | –
3 | CKGKGAKCSRLMYDCCTGSCRSGKCGGYGRKKRRQRRR [MVIIA-c] | lower than that of MVIIA | – | about 4 hours | immediate effect | no significant differences | 3 h | still significantly different | 10 h
4 | CKGKGAKCSRLMYDCCTGSCRSGKCGYGRKKRRQRRR [MVIIA-b] | lower than that of MVIIA | showed antinociceptive effects | about 4 hours | immediate effect | no significant differences | – | still significantly different | 10 h
5 | CKGKGAKCSRLMYDCCTGSCRSGKCYGRKKRRQRRR [MVIIA-a] | lower than that of MVIIA | showed antinociceptive effects | about 4 hours | immediate effect | no significant differences | – | – | –
